Article PMC3276683 (Bioorganic & medicinal chemistry, 2012)
Read-outs that look alike come from different tables or passages of the source.

Key:
[1] = test system: American Trypanosoma cruzi blood trypomastigotes; conditions: in words; cited from earlier work
[2] = test system: Plasmodium falciparum (strain K1, IEF stage); format: cell-based; conditions: L6 IC50 versus P. falciparum IC50
[3] = test system: Trypanosoma brucei rhodesiense (strain STIB 900, trypomastigote stage); assay: Growth inhibition of T. b. rhodesiense STIB900 trypomastigote forms; format: cell-based
Leishmania donovani = conditions: cited from earlier work

Question: For COc1cc(/C=C/c2ccc(OC)c(OC)c2)oc(=O)c1 [compound 3, 6-[2-(3,4-Dimethoxyphenyl)ethenyl]-4-methoxy-2H-pyran-2-one], which “activity against T. cruzi blood trypomastigotes” value [1] is on record?
Answer: Its value is “weak activity”.

Question: Which “SI Pf. (selectivity index for Plasmodium falciparum against L6)” value [2] does the source give for COC1=CC(=O)O[C@]2(/C=C/c3ccc(C(C)(C)C)cc3)[C@H]1[C@H](c1ccc(C(C)(C)C)cc1)[C@H]2c1cc(OC)cc(=O)o1 (racemic) [compound 33, 12,12′-Di-tert-butyl-aniba-dimer-A] here?
Answer: The value was ~80.

Question: With Nc1nc(N)nc(Nc2ccc([As]3SCC(CO)S3)cc2)n1 (centres unmarked) [melarsoprol] as the compound, how does the IC50 ([3]; RHODESIENSE|STIB900) read?
Answer: The IC50 was 4 ng/mL.

Question: And the IC50 ([3]; RHODESIENSE|STIB900, read-out: T.b.rhod. IC50)?
Answer: The IC50 was 10 nM.

Question: For CCCCCCc1c(OC)cc(CCCCC)oc1=O [compound 10], which IC50 (Leishmania donovani) is on record?
Answer: The IC50 was “similarly active”.
